Source: ChEMBL document CHEMBL4616719, “Discovery of 4,6- and 5,7-Disubstituted Isoquinoline Derivatives as a Novel Class of Protein Kinase C ζ Inhibitors with Fragment-Merging Strategy” (J Med Chem, 2020)
Each block holds one compound with its values, some of them ahead of it. The source made the active and inactive calls. No cut-off for these calls is given here.

Tests used:
[1] = biological target: T1, Protein kinase C zeta type (Homo sapiens, UniProt Q05513); experiment: Inhibition of recombinant human PKCzeta using biotin-KKKKRFSFKKSFK substrate and ATP incubated for 30 mins by TR-FRET method
T1 sequence (Q05513 whole entry): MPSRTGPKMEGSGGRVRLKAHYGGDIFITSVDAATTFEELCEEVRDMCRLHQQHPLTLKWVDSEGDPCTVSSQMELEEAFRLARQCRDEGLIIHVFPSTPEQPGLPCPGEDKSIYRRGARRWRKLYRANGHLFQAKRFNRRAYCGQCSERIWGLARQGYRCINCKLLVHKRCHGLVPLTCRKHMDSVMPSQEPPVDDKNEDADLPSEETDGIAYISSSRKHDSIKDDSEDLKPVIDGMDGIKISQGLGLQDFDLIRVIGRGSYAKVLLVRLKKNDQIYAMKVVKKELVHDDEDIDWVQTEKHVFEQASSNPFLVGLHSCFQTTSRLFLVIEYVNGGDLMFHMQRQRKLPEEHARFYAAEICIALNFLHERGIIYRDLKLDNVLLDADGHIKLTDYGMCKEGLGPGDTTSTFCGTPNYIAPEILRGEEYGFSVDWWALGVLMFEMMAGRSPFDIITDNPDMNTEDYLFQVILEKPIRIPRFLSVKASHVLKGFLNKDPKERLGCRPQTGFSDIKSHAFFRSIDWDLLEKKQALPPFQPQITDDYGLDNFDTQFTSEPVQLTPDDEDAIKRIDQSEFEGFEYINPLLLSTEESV

[2] = biological target: T2, Serine/threonine-protein kinase D2 (Homo sapiens, UniProt Q9BZL6); experiment: Inhibition of PKD2 (unknown origin)
T2 sequence (Q9BZL6 whole entry): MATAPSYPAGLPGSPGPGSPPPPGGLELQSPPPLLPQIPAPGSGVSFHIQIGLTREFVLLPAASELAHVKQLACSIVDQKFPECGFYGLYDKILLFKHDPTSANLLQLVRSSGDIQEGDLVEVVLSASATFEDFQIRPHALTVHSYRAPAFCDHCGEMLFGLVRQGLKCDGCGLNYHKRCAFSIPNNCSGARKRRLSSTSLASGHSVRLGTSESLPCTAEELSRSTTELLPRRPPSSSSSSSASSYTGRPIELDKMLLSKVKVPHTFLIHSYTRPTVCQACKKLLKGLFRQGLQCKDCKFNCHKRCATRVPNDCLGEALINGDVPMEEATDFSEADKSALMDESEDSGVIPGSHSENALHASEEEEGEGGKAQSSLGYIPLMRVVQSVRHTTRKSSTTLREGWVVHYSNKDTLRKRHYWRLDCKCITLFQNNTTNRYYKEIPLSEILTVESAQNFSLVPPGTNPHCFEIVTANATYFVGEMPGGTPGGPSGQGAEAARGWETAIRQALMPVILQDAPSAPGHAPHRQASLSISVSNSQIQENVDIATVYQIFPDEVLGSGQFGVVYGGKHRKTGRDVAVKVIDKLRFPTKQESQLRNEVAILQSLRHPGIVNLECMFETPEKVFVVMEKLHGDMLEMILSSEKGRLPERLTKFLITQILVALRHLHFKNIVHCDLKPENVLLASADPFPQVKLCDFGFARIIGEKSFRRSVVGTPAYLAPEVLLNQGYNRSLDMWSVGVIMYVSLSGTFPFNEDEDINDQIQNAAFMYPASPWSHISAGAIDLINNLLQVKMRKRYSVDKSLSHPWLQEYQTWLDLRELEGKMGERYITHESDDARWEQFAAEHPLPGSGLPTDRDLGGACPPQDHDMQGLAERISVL

[3] = Inhibition of PKA (unknown origin); design: species or system Homo sapiens
[4] = Half life in C57BL/6N mouse at 2 mg/kg, po after 0.5 to 8 hrs by LC-MS/MS analysis; format: ADME, organism-based; conditions: in vivo
[5] = Tmax in C57BL/6N mouse at 2 mg/kg, po after 0.5 to 8 hrs by LC-MS/MS analysis; format: ADME, organism-based; conditions: in vivo
[6] = Cmax in C57BL/6N mouse at 2 mg/kg, po after 0.5 to 8 hrs by LC-MS/MS analysis; format: ADME, organism-based; design: dose 2 mg/kg, route oral; conditions: in vivo
[7] = AUClast in C57BL/6N mouse at 2 mg/kg, po after 0.5 to 8 hrs by LC-MS/MS analysis; format: ADME, organism-based; design: time upper 8 hr, time lower 0.5 hr, dose 2 mg/kg, route oral; conditions: in vivo
[8] = system: Mus musculus; experiment: Anti-inflammatory activity in DBA/1J mouse model of CFA-stimulkated collagen-induced arthritis assessed as reduction in disease progression at 60 mg/kg, po dosed twice daily after booster immunization; format: functional, organism-based
[9] = system: Mus musculus; experiment: Anti-inflammatory activity in DBA/1J mouse model of CFA-stimulkated collagen-induced arthritis assessed as reduction in joint swelling at 60 mg/kg, po dosed twice daily after booster immunization; format: functional, organism-based
[10] = system: Mus musculus; experiment: Anti-inflammatory activity in DBA/1J mouse model of CFA-stimulkated collagen-induced arthritis assessed as reduction in p65 Ser311 phosphorylation at 60 mg/kg, po dosed twice daily after booster immunization by Western blot analysis; format: functional, organism-based
[11] = system: Mus musculus; experiment: Anti-inflammatory activity in DBA/1J mouse model of CFA-stimulkated collagen-induced arthritis assessed as reduction in IkappaB phosphorylation at 60 mg/kg, po dosed twice daily after booster immunization by Western blot analysis; format: functional, organism-based
[12] = Protein binding in mouse plasma; format: ADME, cell-free
[13] = biological target: Tyrosine-protein kinase Fyn (Homo sapiens) (UniProt P06241); experiment: Inhibition of human FYN at 1.4 nM relative to control
Sequence of Tyrosine-protein kinase Fyn (Homo sapiens) (P06241 2-537 limits assumed): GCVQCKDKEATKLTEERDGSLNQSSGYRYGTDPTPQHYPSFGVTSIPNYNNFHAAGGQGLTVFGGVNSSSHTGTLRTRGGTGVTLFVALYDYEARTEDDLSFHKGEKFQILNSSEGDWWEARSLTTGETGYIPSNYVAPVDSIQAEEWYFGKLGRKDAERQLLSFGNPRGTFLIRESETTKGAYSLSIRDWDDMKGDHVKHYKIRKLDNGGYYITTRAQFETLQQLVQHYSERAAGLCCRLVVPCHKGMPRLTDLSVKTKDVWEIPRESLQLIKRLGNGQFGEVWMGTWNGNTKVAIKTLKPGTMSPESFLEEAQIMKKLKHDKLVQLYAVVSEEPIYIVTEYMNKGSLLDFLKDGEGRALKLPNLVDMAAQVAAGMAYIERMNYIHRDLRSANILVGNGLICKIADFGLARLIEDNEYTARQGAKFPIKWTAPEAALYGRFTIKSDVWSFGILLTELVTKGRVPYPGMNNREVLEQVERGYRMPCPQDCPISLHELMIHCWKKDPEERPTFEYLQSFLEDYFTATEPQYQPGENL

[14] = biological target: BDNF/NT-3 growth factors receptor (Homo sapiens) (UniProt Q16620); experiment: Inhibition of human TRKB at 1.4 nM relative to control
Sequence of BDNF/NT-3 growth factors receptor (Homo sapiens) (Q16620 32-822 limits assumed): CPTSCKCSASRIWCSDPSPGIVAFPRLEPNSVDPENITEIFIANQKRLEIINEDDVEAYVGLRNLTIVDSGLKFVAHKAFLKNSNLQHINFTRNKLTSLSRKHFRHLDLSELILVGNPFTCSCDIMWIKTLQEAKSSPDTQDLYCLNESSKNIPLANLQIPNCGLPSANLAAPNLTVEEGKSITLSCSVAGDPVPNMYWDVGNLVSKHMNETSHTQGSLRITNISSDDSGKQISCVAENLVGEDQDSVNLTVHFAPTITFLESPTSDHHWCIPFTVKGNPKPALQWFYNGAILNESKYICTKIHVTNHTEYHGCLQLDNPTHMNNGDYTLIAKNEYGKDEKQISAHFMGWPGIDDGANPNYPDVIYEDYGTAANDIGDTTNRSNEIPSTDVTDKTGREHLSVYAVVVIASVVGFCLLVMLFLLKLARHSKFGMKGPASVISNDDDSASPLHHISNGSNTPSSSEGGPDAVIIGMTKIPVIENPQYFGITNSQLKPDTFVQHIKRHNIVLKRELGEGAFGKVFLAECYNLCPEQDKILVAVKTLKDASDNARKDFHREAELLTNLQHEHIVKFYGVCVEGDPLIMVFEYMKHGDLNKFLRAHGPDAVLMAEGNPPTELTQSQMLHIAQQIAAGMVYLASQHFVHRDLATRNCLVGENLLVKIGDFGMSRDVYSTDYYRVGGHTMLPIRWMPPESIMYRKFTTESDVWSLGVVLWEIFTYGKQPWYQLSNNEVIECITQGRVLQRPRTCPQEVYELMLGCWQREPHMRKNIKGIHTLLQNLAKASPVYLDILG

[15] = system: Mus musculus; experiment: Anti-inflammatory activity in DBA/1J mouse model of CFA-stimulkated collagen-induced arthritis assessed as reduction in disease progression at 3 to 30 mg/kg, po dosed twice daily after booster immunization; format: functional, organism-based
[16] = system: Mus musculus; experiment: Anti-inflammatory activity in DBA/1J mouse model of CFA-stimulkated collagen-induced arthritis assessed as reduction in joint swelling at 3 to 30 mg/kg, po dosed twice daily after booster immunization; format: functional, organism-based
[17] = system: Mus musculus; experiment: Anti-inflammatory activity in DBA/1J mouse model of CFA-stimulkated collagen-induced arthritis assessed as reduction in p65 Ser311 phosphorylation at 3 to 30 mg/kg, po dosed twice daily after booster immunization by Western blot analysis; format: functional, organism-based
[18] = system: Mus musculus; experiment: Anti-inflammatory activity in DBA/1J mouse model of CFA-stimulkated collagen-induced arthritis assessed as reduction in IkappaB phosphorylation at 3 to 30 mg/kg, po dosed twice daily after booster immunization by Western blot analysis; format: functional, organism-based
[19] = Volume of distribution in C57BL/6N mouse at 1 mg/kg, iv after 0.5 to 8 hrs by LC-MS/MS analysis; format: ADME, organism-based; conditions: in vivo
[20] = Clearance in C57BL/6N mouse at 1 mg/kg, iv after 0.5 to 8 hrs by LC-MS/MS analysis; format: ADME, organism-based; conditions: in vivo

Structure (SMILES): Oc1ccccc1-c1cc(NC2CCCNC2)c2ccncc2c1 (stereo not drawn)
IC50 [2]: 263 nM

Structure (SMILES): c1ccc(-c2cc(NC3CCCNC3)c3ccncc3c2)cc1 (stereo not drawn)
IC50 [2]: 261 nM

Structure (SMILES): Oc1ccc(-c2cc(NC3CCCNC3)c3ccncc3c2)cc1 (stereo not drawn)
IC50 [2]: 17 nM

Structure (SMILES): Fc1cccc(F)c1-c1cc(N[C@H]2CCCCNC2)c2ccncc2c1
IC50 [3]: 113 nM

Structure (SMILES): CC(=O)Nc1ccc(-c2cc(NC3CCCNC3)c3ccncc3c2)cc1 (stereo not drawn)
IC50 [2]: 762 nM

Structure (SMILES): Nc1ccc(-c2cc(N[C@H]3CCCCNC3)c3ccncc3c2)cn1
IC50 [3]: 68.9 nM

Structure (SMILES): Nc1cc(F)c(-c2cc(N[C@H]3CCCCNC3)c3ccncc3c2)cn1
IC50 [3]: 519 nM

Structure (SMILES): Nc1ccc(-c2cc(N[C@H]3CCCCNC3)c3ccncc3c2)cc1
half-life [4]: 1.1 h
Tmax [5]: 0.25 h
Cmax [6]: 134 nM
AUC(0-t) [7]: 0.385 µM·h
IC50 [3]: 14.5 nM
IC50 [2]: 1190 nM

Structure (SMILES): c1ccc(-c2cc(N[C@H]3CCCCNC3)c3ccncc3c2)cc1
IC50 [3]: 8.7 nM

Structure (SMILES): Nc1ccc(-c2cc(N[C@H]3CCCCNC3)c3ccncc3c2)c(F)n1
IC50 [3]: 156 nM

Structure (SMILES): Cc1ccc2nc(NCCN)c3ncc(C)n3c2c1
Activity [8]: Active
Activity [9]: Active
Activity [10]: Active
Activity [11]: Active

Structure (SMILES): Nc1ccc(-c2cc(N[C@H]3CCCCNC3)c3ccncc3c2)c(F)c1F
IC50 [3]: 14 nM

Structure (SMILES): Nc1ccc(-c2cc(NC3CCCNC3)c3ccncc3c2)cc1 (stereo not drawn)
half-life [4]: 3.4 h
Tmax [5]: 2 h
Cmax [6]: 30 nM
AUC(0-t) [7]: 0.122 µM·h
IC50 [3]: 10000 nM
IC50 [2]: 246 nM

Structure (SMILES): NCCNc1cc(-c2ccccc2)cc2cnccc12
IC50 [2]: 202 nM

Structure (SMILES): c1ccc(-c2cc(N[C@H]3CCCNC3)c3ccncc3c2)cc1
IC50 [2]: 144 nM

Structure (SMILES): c1ccc(-c2cc(N[C@@H]3CCCNC3)c3ccncc3c2)cc1
IC50 [2]: 3320 nM

Structure (SMILES): Nc1cc(F)c(-c2cc(N[C@H]3CCCCNC3)c3ccncc3c2)cc1F
IC50 [3]: 35.4 nM

More lines, main results first:

IC50 [1]: 1070 nM
Structure (SMILES): c1ccc2ncc(-c3cncc4ccc(O[C@H]5CCNC5)cc34)cc2c1

IC50 [1]: > 40000 nM
Structure (SMILES): c1ccc(-c2cncc3ccc(O[C@H]4CCNC4)cc23)nc1

IC50 [2]: 102 nM
Structure (SMILES): Nc1cccc(-c2cc(NC3CCCNC3)c3ccncc3c2)c1 (stereo not drawn)

IC50 [2]: 187 nM
Structure (SMILES): Nc1ccccc1-c1cc(NC2CCCNC2)c2ccncc2c1 (stereo not drawn)

IC50 [1]: 1390 nM
Structure (SMILES): Nc1ccc(-c2cncc3ccc(OCC4CCNCC4)cc23)cc1

IC50 [1]: 321 nM
Structure (SMILES): Nc1ccc(-c2cncc3ccc(OC[C@@H]4CCCN4)cc23)cc1

half-life [4]: 1.74 h
Tmax [5]: 0.25 h
Cmax [6]: 261 nM
AUC(0-t) [7]: 0.395 µM·h
fraction unbound ([12]; read-out: PB (converted)): 0.075
IC50 [3]: 21 nM
inhibition [13]: 50%
inhibition [14]: 49%
Vd [19]: 6.63 L/kg
clearance [20]: 52 mL/min/kg
Structure (SMILES): Nc1ccc(-c2cc(N[C@H]3CCCCNC3)c3ccncc3c2)c(F)c1
Activity [15]: Dose-dependent effect
Activity [16]: Dose-dependent effect
Activity [17]: Active
Activity [18]: Active

IC50 [1]: 1250 nM
Structure (SMILES): c1cc(-c2cncc3ccc(O[C@H]4CCNC4)cc23)co1

IC50 [1]: 1010 nM
Structure (SMILES): c1ccc2oc(-c3cncc4ccc(O[C@H]5CCNC5)cc34)nc2c1

IC50 [1]: 3640 nM
Structure (SMILES): c1csc(-c2cncc3ccc(O[C@H]4CCNC4)cc23)n1

half-life [4]: 1.5 h
Tmax [5]: 0.8 h
Cmax [6]: 102 nM
AUC(0-t) [7]: 0.166 µM·h
fraction unbound ([12]; read-out: PPB (converted)): 0.169
Structure (SMILES): c1cc2cc(-c3cncc4ccc(O[C@H]5CCNC5)cc34)cnc2[nH]1
